Key:
HIV = experiment: inhibition of HIV infectivity; format: cell-based
lactobacilli = experiment: effect on lactobacilli; format: cell-based
Source text: (§1) A preferred microbicidal agent according to the present invention is bisabolol. In particular, alpha-bisabolol (levomenol) is a preferred microbicidal agent. Bisabolol is a naturally occurring unsaturated monocyclic sesquiterpene alcohol. Alpha-bisabolol is used in a wide range or cosmetic formulations as a skin conditioning agent at concentrations ranging from approximately 0.001% in lipstick to approximately 1% in underarm deodorants. Bisabolol has been used for cosmetic purposes in India and worldwide in skin, oropharyngeal, nasal and vaginal products such as douches up to concentrations of approximately 5%, but has not been used in the prevention or treatment of STIs and/or common vaginal diseases. Bisabolol is the main active principle of chamomile (Matricaria chamomilla) and up to approximately 50% of the essential oil of chamomile consists of alpha-bisabolol.

[1] = oral and dermal toxicity, genotoxicity, reproductive/developmental toxicity, sensitization and photosensitization studies; conditions: oral, dermal, sensitization, photosensitization studies
Source text: as §1

Microsporum canis = conditions: isolates of Microsporum canis; cited from earlier work
Candida albicans = conditions: isolates of Candida albicans; cited from earlier work
Epidermophyton floccosum = conditions: isolates of Epidermophyton floccosum; cited from earlier work
[2] = test system: Trichophyton mentagrophytes; conditions: isolates of Trichophyton mentagrophytes; cited from earlier work
Trichophyton rubrum = conditions: isolates of Trichophyton rubrum; cited from earlier work

CC(C)=CCCC(C)(O)C1CC=C(C)CC1 (stereo not drawn) [Bisabolol, 3-Cyclohexene-1-methanol, alpha,4-dimethyl-alpha-(4-methyl-3-pentenyl)]
anti-HIV activity (HIV): very high anti-HIV activity | IC50, inhibition of HIV infectivity (HIV; mixed with the virus and cells): 0.6 µg/mL | IC50, inhibition of HIV infectivity (HIV; mixed with the virus for 5 minutes before washing): 1 µg/mL | inactivation of HIV (HIV; washed away after short-term treatment): inactivates HIV | effect on lactobacilli (lactobacilli; concentration 2 mg/ml): no effect | effect on lactobacilli (lactobacilli; concentration 10 mg/ml): no effect | toxicity [1]: little toxicity

Cc1cc(C2CCCCC2)n(O)c(=O)c1.NCCO [Ciclopirox Olamine, 6-Cyclohexyl-1-hydroxy-4-methyl-2-(1H)-pyridone ethanolamine salt]
fungicidal activity in vitro (Microsporum canis): exhibits fungicidal activity | fungicidal activity in vitro (Candida albicans): exhibits fungicidal activity | fungicidal activity in vitro (Epidermophyton floccosum): exhibits fungicidal activity | fungicidal activity in vitro [2]: exhibits fungicidal activity | fungicidal activity in vitro (Trichophyton rubrum): exhibits fungicidal activity

Source: patent publication US20050025847A1, “Microbicidal compositions and method of use” (Program for Appropriate Technology in Health, priority 2003, published 2005)
